Series [1] has as its system Herpes simplex virus type-1. As to the kind of experiment: Viral yield reduction assay, Herpes Simplex Virus Type 1. The series is classed as cell-based, HSV-1 KOS strain (in Buffalo Green Monkey Kidney cells). As to the method: (§1) The first assay is for inhibition of cytopathic effects (CPE) caused by viral infection of the cells and the second is a standard viral yield reduction assay. This yield reduction assay is a modification of the general method described by Erlich et al., Ann. NY Acad. Sci. 130, 5-16 (1965).
(§2) 1. Buffalo Green Monkey Kidney cells, obtained from Dr. G. Sedmak, City of Milwaukee, Public Health Department Virology Laboratory, are plated at a density of 7×10^4 cells per well in a standard flat bottom 96 well cell culture plate. The cells are contained in a volume of 200 μl Dulbecco's Modified Eagles Medium (DMEM) containing 10% serum [1:1 mixture of fetal bovine serum and defined supplemented calf serum (Hyclone, Inc., Ogden, Utah), 10 mM HEPES buffer (pH 7.2), 100 U/ml penicillin and 100 μg/ml streptomycin sulfate]. HEPES and antibiotics are obtained from Sigma Chemical Co. (St. Louis, Mo.). Two wells are plated for each of the following samples: compound CPR-2001, cell control (cells only), virus control (cells infected but not treated), vehicle control (solvent for compound, 9:1 dimethylsulfoxide:ethanol), and cell counts.
(§3) 2. The cultures are incubated at 37° C. with 5% CO2 until a monolayer of cells is formed on the bottom of each well (usually overnight).
(§4) 3. The media is removed from the wells by aspiration. The cells are refed with media containing the desired concentration of test compound CPR-2001 (100 μM final concentration), media only (cell control and virus control samples), or solvent (9:1, DMSO:ethanol) at a final concentration of 0.33%. Compound CPR-2001 is dissolved at a stock concentration of 30 mM and diluted 300-fold. The cell count wells receive media only.
(§5) 4. The cultures are incubated for 24 hr at 37° C. with 5% CO2.
7. […]
10. After scoring for viral CPE, the yield of infectious virus in each well is measured by standard plaque assay on Vero cells (ATCC #CCL81). […] Excess stain is rinsed from the cells, the number of plaques are counted and the yield of virus in the original sample is calculated.

Series [2] relates to Buffalo Green Monkey Kidney cells. As to the kind of experiment: Toxicity to uninfected cells (rounding and/or detachment, 24 hr). The series is classed as cell-based. More on the design: key to Toxicity 24 hr: Not toxic. As to the method:
as §2, §3, §4, §5
5. At the end of 24 hr, each well is scored for the presence of toxicity (cells exposed to compound but not infected) as indicated by rounding and/or detachment of the cells from the plate. Scoring is as follows: 1+, 25% of cells rounded; 2+, 25 to 50% of cells rounded; 3+, 75% of cells rounded; 4+, 100% of cells rounded.

In the next series the test system is RAW 264.7 cells. As to the kind of experiment: Chemiluminescence (CL) assay, inhibition of macrophage activation by PMA. Particulars: for anti-inflammatory activity (in words): 1 to 30 μM; for inhibition at 1 µM / inhibition at 3 µM / inhibition at 10 µM / inhibition at 30 µM: Mus musculus, RAW264.7, read-out: % inhibition of macrophage activation by PMA.
Series [3] is described as follows: Anti-PAF activity in anesthetized guinea pigs (total pulmonary resistance). Type of series: in vivo. The settings on record: for TPR after PAF, % of Controls: PAF controls 183.36; for PAF antagonist activity / TPR (in words): 1, 3, 10, 30 and 50 μM per kg.
A further series deals with Cryptococcus neoformans. The series is described as follows: Antifungal assay, Cryptococcus neoformans. Type of series: cell-based. As to the method:
(§6) 1. 10^4 Cells (either C. albicans or C. neoformans) are placed in wells of a 96-well plate within a total volume of 90 μl. Cells are grown in RPMI-1640 plus 10% FCS.
(§7) 2. Add 10 μl of control or drug to be evaluated (CPR-2001):
(§8) Fungizone (2.5 μg/ml and 5.0 μg/ml); and
(§9) 3. Incubate for 48 hours at 37° C.
(§10) 5. Plate onto Sabourand plates and incubate overnight at 37° C.; and
(§11) 6. Count and record colonies.
(§12) All samples are tested in duplicate in two separate experiments. The data are then averaged to obtain the following results in Table 2.

Series [4] can be described thus: Liposome particle size by laser-light scattering (QELS). Type of series: physicochemical. Particulars: 10 micromoles. The source says: […] The solution is transferred to a 16×120 mm screw-capped tube. The tube is placed, uncapped, inside a 1×8 inch boiling tube with B24/40 standard glass fitting. Inside the boiling tube, in the space between the boiling tube and the smaller screw-capped tube, there is a small amount of distilled water to aid thermal contact between the inner and outer tube. The boiling tube is placed on a rotary evaporator under reduced pressure to evaporate the chloroform and leave the lipid as a thin film in the lower portion of the screw-capped tube. The boiling tube is partly immersed in a water bath at 37° C. during the evaporation to aid the process.
(§13) Once a thin film has been formed, the screw-capped tube is removed from the boiling tube, and one ml. of aqueous solution is added to it. The tube is capped and immersed in a water bath at 75° C. to aid swelling of the lipid. Swelling of the film is observed to occur when the film becomes cloudy, and is, with agitation, dislodged from the walls of the tube to give a cloudy suspension in the aqueous medium. This suspension is found to consist of liposomes by the application of two techniques. First, laser-light scattering, or QELS, reveal the presence of particles of 658 nm in diameter in one determination, 1468 nm in another.
In a second preparation, 10 micromoles of CPR 2001 are taken through the identical procedure described above. […]

Series [5] deals with Poliovirus Type III. The series is classed as cell-based. Particulars: 100 μM, 48 hr.
A further series has as its system Candida albicans. As to the kind of experiment: Antifungal assay, Candida albicans. The series is classed as cell-based. As to the method: as §6, §7, §8, §9, §10, §11, §12
The test system of series [6] is Herpes simplex virus type-1. The series is described as follows: Inhibition of cytopathic effects (CPE), Herpes Simplex Virus Type 1. Type of series: cell-based, HSV-1 KOS strain (in Buffalo Green Monkey Kidney cells). The settings on record: 100 μM, 48 hr. As for the experimental part: as §1, §2
2. […]
9. At the end of 48 hr, each well is scored for the presence of CPE as indicated by rounding and/or detachment of the cells from the plate. […]
(In general: Protection from cytopathic effect is a common read-out in antiviral testing.)

A short description of series [7]: Electron microscopy of liposomes. The series is classed as physicochemical. As for the experimental part:
Five micromoles of CPR-2001 are dissolved in about 1 ml. of chloroform. The solution is transferred to a 16×120 mm screw-capped tube. The tube is placed, uncapped, inside a 1×8 inch boiling tube with B24/40 standard glass fitting. Inside the boiling tube, in the space between the boiling tube and the smaller screw-capped tube, there is a small amount of distilled water to aid thermal contact between the inner and outer tube. The boiling tube is placed on a rotary evaporator under reduced pressure to evaporate the chloroform and leave the lipid as a thin film in the lower portion of the screw-capped tube. The boiling tube is partly immersed in a water bath at 37° C. during the evaporation to aid the process.
as §13, with “another. […]” for “another.”

For series [8], the system named is Poliovirus Type III. Type of series: cell-based. The settings on record: 100 μM, 48 hr. The source holds these as a separate data set.
Setting [9] is: increasing concentration, 1 to 100 μg/ml.

Entries after “also recorded” stand apart in the source; their conditions may differ.

Regarding `Cc1c(C)c2c(c(C)c1OP(=O)([O-])OCC[N+](C)(C)C)CCC(C)(CCCC(C)CCCC(C)CCCC(C)C)O2` (stereo not drawn) [CPR-2001, α-tocopherolphosphocholine], the “Virus Yields (48 Hours)” value in [1] (100 μM) is 5.5 × 10^4 PFU/ml. For the same molecule, the “Reduction of virus yield (fold reduction)” value in series [1] (100 μM, 48 hr, compared to virus and vehicle control) was found to be 18 fold. The activity at 100 µM in series [1] (Human alphaherpesvirus 1, BGMK, in Chlorocebus sabaeus, 48 hr, virus control 1.00, read-out: Virus Yields (48 Hours), Yield) amounted to 5.5%. In addition, the Toxicity result in series [2] (Table 1A, 100 μM, 24 hr) is listed as “N-±”. Moreover, the “Toxicity 24 hr” value in series [2] (Table 1B, 100 μM, 24 hr) is listed as “N”. In addition, in [2] (at antivirally effective levels), the “Toxicity (in words)” value is given as “No apparent cytotoxicity; also recorded: not toxic”. The “anti-inflammatory activity (in words)” value with RAW 264.7 cells was “marked dose-related anti-inflammatory activity”; with RAW 264.7 cells (listed as CPR2001) it was “antiinflammatory activity markedly increases”. The inhibition at 1 µM in the series with RAW 264.7 cells is 5%. In addition, in the series with RAW 264.7 cells, the inhibition at 3 µM came out at 13%. Besides, in the series with RAW 264.7 cells, the inhibition at 10 µM was 31%. Moreover, the inhibition at 30 µM in the series with RAW 264.7 cells came out at 56%. The “TPR after PAF, % of Controls” value in series [3] (1 μM/kg i.v.) was 193.75 % of Controls; in series [3] (3 μM/kg i.v.), 124.58 % of Controls; in series [3] (10 μM/kg i.v.), 98.19 % of Controls; in [3] (30 μM/kg i.v.), 19.60 % of Controls; in series [3] (50 μM/kg i.v.), 8.33 % of Controls. Moreover, the “PAF antagonist activity / TPR (in words)” value in [3] is given as “Decreases of TPR in a dose-related way”; in series [3] (listed as α-tocopherolphosphocholine), “marked PAF antagonist activity”. Also, the inhibition at 1 µg/mL with Cryptococcus neoformans (Cryptococcus neoformans, 1 mcg/ml, 48 hours) worked out at 10%; in the series on Candida albicans (Candida albicans, 1 mcg/ml, 48 hours) it was 25%. Also, the inhibition at 10 µg/mL turned out to be 40% with Cryptococcus neoformans (Cryptococcus neoformans, 10 mcg/ml, 48 hours) and 40% with Candida albicans (Candida albicans, 10 mcg/ml, 48 hours). Besides, the inhibition at 100 µg/mL is 73% in the series with Cryptococcus neoformans (Cryptococcus neoformans, 100 mcg/ml, 48 hours) and 76% with Candida albicans (Candida albicans, 100 mcg/ml, 48 hours). Further, the “percent of fungal inhibition (in words)” value in the series on Cryptococcus neoformans (setting [9]) and with Candida albicans (setting [9]) was “the percent of fungal inhibition also increases” in each case. For the same molecule, the “particle size of liposomes (QELS)” value in series [4] (after about 10 minutes sonication at 75° C.) was 102 nm; in series [4] (before sonication), “greater than 5,000 nm”. Moreover, in the series on Poliovirus Type III [5], the CPE is reported as 2+ (25 to 50% of cells rounded). The “development of viral CPE (in words)” value in the series with Poliovirus Type III [5] is listed as “inhibits the development of viral CPE”. Also, the “Viral CPE” value in series [6] was 1+ (<25% of cells rounded). In series [6], the “development of viral cytopathic effect (in words)” value is “markedly inhibits the development of viral cytopathic effect”. For the same molecule, the “structure of particles by electron microscopy” value is listed as “characteristic concentric lamellar structure of liposomes” in [7] (5 micromoles, not sonicated) and “still multilamellar, but smaller” in series [7] (10 micromoles, after sonication). Besides, the Titer in the series on Poliovirus Type III [8] is reported as 2.7 × 10^6 pfu/ml. Further, the “Fold-Reduction of virus yield” value in the series on Poliovirus Type III [8] (compared to virus control) was 10.7 fold.
As for `CC1=C(/C=C/C(C)=C/C=C/C(C)=C/C(=O)O)C(C)(C)CCC1` [Retinoic Acid, retinoic acid], in the series on RAW 264.7 cells, the inhibition at 1 µM was found to be 2%, the inhibition at 3 µM stood at 6%, the inhibition at 10 µM is 3% and the inhibition at 30 µM was 6%.
With `Cc1c(C)c2c(c(C)c1O)CCC(C)(CCCC(C)CCCC(C)CCCC(C)C)O2` (stereo not drawn) [α-Tocopherol, α-tocopherol], in the series with RAW 264.7 cells, the inhibition at 1 µM was -3%, the inhibition at 3 µM is -6%, the inhibition at 10 µM is -6% and the inhibition at 30 µM is -14%.

As usually defined, the inhibition is the change of the read-out against control, counted positive when it falls.

For the origin of these results see patent publication US5763423A, “Pharmaceutical compositions, novel uses, and novel form of tocopherylphosphocholine” (Clarion Pharmaeuticals Inc., priority 1996, dated 1998).
